From PMC8496750, “Identification of the organic anion transporting polypeptides responsible for the hepatic uptake of the major metabolite of epyrifenacil, S‐3100‐CA, in mice” (Pharmacology Research & Perspectives, 2021)

Columns and labels:
mouse Oatp1b2 = molecular target: T1, mouse Oatp1b2 (Mus musculus, UniProt Q9JJL3); assay: Inhibition of S‐3100‐CA uptake by OATP inhibitors, mouse Oatp1b2; assay type: in vitro ADME; set-up: expressed in transfected cells; host or cells: 293FT cells; conditions: inhibitor at 100 μM
T1 sequence (Q9JJL3 1-689): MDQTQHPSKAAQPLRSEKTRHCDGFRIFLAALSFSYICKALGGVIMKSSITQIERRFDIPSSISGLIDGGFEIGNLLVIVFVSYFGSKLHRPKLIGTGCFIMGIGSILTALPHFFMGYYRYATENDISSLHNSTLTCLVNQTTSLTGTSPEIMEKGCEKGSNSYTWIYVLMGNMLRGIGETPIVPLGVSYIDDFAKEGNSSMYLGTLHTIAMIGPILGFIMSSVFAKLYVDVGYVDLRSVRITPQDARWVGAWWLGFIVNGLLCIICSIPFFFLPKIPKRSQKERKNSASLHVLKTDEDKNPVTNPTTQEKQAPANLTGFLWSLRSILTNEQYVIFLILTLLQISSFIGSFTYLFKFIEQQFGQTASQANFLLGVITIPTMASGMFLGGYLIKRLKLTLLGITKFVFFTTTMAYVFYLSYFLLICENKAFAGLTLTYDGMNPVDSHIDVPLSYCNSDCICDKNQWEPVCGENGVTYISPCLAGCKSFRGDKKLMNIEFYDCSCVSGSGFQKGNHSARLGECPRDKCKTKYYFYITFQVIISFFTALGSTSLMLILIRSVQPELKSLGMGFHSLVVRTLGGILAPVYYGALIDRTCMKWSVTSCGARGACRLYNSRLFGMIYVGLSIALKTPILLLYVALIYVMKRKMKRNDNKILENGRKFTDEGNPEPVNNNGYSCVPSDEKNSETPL
Procedure: (§1) 293FT cells were purchased from Thermo Fisher Scientific, Inc.. The cells were grown in Dulbecco's modified Eagle medium (supplemented with 4.5 g/L glucose and 2 mM L‐glutamine) at 37°C, 5% CO2, and 95% humidity. The cells were passaged 3 times per week by harvesting cells using trypsin and plating at a density of 1.0 × 10^4 cells/cm^2 in a 10 cm cell culture plate for maintenance culture. The 293FT cells were detached using trypsin and re‐seeded at a density of 2.5 × 10^4 cells/cm^2 in BioCoat™ Collagen I 6‐well plates (Corning Inc.) for transfection and then treated with 1.2 μg of plasmid vector and 3.2 μl of Lipofectamine™ 2000 Transfection Reagent (Thermo Fisher Scientific, Inc.) according to the manufacturer's instructions. After a 3‐h treatment, the transfection medium was replaced with a fresh cell culture medium and incubated at 37°C with 95% humidity and 5% CO2 until ready for the assay.
(§2) Transport experiments were conducted approximately 24 h post‐transfection. […] From the lysate, 1.0 ml was transferred to a vial containing 10 ml of Emulsifier Scintillator Plus to measure the radioactivity in the LSC. The protein concentration of the cell lysate was also measured using a Pierce™ BCA Protein Assay Kit (Thermo Fisher Scientific, Inc.), which was used to normalize, according to the cell number, the radioactivity in the cell lysate extract. […]

human OATP1B3 = molecular target: T2, human OATP1B3 (Homo sapiens, UniProt Q9NPD5); assay: Inhibition of S‐3100‐CA uptake by OATP inhibitors, human OATP1B3; assay type: in vitro ADME; conditions: inhibitor at 100 μM
T2 construct: expressed in transfected cells; host or cells: 293FT cells
T2 sequence (Q9NPD5 1-702): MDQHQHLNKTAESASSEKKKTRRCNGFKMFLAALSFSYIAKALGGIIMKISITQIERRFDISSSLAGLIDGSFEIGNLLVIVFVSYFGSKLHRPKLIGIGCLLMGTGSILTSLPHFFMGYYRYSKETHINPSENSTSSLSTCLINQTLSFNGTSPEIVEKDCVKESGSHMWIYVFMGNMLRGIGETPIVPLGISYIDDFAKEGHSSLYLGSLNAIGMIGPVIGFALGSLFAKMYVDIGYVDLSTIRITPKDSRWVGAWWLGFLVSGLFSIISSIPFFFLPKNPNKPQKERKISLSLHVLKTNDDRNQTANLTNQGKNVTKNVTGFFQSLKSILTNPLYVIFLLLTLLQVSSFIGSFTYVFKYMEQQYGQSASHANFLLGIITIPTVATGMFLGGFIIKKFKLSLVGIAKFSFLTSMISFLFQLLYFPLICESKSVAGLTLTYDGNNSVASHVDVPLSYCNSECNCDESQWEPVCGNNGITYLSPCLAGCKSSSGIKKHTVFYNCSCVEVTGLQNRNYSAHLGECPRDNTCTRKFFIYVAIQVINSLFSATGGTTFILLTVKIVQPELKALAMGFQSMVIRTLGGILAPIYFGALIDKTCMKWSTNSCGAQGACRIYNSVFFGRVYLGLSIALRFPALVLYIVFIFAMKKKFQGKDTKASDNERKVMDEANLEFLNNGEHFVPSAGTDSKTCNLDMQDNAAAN
Procedure: as §1, §2

CO[C@H]1/C=C/O[C@@]2(C)Oc3c(C)c(O)c4c(O)c(c(/C=N/N5CCN(C)CC5)c(O)c4c3C2=O)NC(=O)/C(C)=C\C=C\[C@H](C)[C@H](O)[C@@H](C)[C@@H](O)[C@@H](C)[C@H](OC(C)=O)[C@@H]1C [RIF, Rifampicin] was tested. Which “Uptake of S‐3100‐CA, % of that by vehicle‐treated cells” value (mouse Oatp1b2) did it give?
Its value is “less than 40%”.

What about the “Uptake of S‐3100‐CA, % of that by vehicle‐treated cells” value (human OATP1B3) of the same compound?
The value was “less than 40%”.
